# Results published in article PMC5018819 (Scientific Reports, 2016).
# Where two headings read alike, the source gives them in different places.
# What was measured:
# P. falciparum 3D7 [1] = test: microscopy of tightly synchronized asexual blood stage culture; assay type: cell-based, Plasmodium falciparum; settings: EC90; synchronized ring stage parasites 6–12 hours post invasion
# Method: P. falciparum 3D7 was cultured according to standard methods, and a 6 hours window was achieved by a combination of Percoll and sorbitol synchronizations. Briefly, schizonts and late trophozoites were isolated from earlier stages according to their density by centrifugation on a continuous gradient of 60% Percoll. The resulting schizonts were allowed to invade uninfected red blood cells for 6 hours and newly infected red blood cells were subjected to a 5% sorbitol treatment for 10 minutes at 37 °C. […] Thin blood smears were Giemsa stained every 6 hours until an entire intraerythrocytic cycle was completed.
# PfEK = target: T1, PfEK (Plasmodium falciparum, UniProt Q8IIB7); test: IC50 determination, spectrophotometric EK enzyme assay; assay type: biochemical, P. falciparum; settings: for IC50: Etn as substrate, 0.5 mM each substrate
# T1 sequence (Q8IIB7 2-420): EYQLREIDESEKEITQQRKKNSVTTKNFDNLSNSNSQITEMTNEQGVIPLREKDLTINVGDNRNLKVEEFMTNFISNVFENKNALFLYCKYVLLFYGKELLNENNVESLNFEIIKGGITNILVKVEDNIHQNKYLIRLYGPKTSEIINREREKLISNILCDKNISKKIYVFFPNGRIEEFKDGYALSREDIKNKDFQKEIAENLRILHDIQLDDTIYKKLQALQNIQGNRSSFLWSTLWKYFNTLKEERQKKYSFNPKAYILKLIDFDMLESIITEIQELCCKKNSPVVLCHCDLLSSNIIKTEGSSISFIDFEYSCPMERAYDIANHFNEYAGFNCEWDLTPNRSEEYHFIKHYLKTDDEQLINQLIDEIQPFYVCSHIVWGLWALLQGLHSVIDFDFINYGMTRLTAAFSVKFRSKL
# Method: (§1) A continuous spectrophotometric 96-well plate assay was established for CK and EK activity based on an assay described. […] The reaction was initiated by addition of enzyme or substrate, as appropriate, and the rate of reaction was monitored by following the decrease in absorbance at 341 nm for 10 min at room temperature using a Thermo Multiska spectrophotometer. Experiments were carried out to ensure that coupling enzymes were not rate-limiting under any of the conditions used and control experiments lacking substrates and/or enzyme were carried out to correct for any background rate.
# (§2) The enzyme was pre-incubated for 5 min with varying concentrations of inhibitor prior to reaction being started by addition of 0.5 mM each substrate. The IC50 values were estimated using Grafit 5 (Erithacus Software Ltd).
# PfCK [2] = target: T2, PfCK (Plasmodium falciparum, UniProt Q8IM71); test: Kd by tryptophan fluorescence quenching; assay type: binding; settings: for Kd: tryptophan fluorescence quenching, 25 °C, enzyme 1 μM
# T2 construct: made in house
# T2 sequence (Q8IM71 1-440): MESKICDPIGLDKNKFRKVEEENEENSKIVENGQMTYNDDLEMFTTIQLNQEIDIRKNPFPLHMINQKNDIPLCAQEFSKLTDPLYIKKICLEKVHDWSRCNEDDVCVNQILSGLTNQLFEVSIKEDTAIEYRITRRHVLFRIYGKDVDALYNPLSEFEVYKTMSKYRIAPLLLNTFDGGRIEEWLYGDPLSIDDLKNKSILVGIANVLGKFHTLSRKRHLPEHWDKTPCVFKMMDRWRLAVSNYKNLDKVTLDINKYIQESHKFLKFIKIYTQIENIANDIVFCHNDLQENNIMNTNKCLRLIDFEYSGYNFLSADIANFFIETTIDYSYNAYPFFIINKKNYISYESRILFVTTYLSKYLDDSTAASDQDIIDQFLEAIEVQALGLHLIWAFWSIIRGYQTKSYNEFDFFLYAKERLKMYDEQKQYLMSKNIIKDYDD
# Method: (§3) Compounds BR23 and BR25 were prepared in 100% DMSO. The Kds for compounds BR23 and BR25 against HsCKα1 and PfCK were measured by monitoring the quenching of tryptophan fluorescence. All experiments were carried out in a Cary Eclipse spectrofluorometer at 25 °C with the enzymes at 1 μM, and concentrations of compounds varying from 0.05 to 8 μM for HsCKα1, and from 0.05 to 16 μM for PfCK in 25 mM Tris, 150 mM NaCl, pH 7.5. Fluorescence emission spectra were recorded in the 300–400 nm range with an excitation wavelength of 280 nm, with slit width of 5 nm. Controls were determined by incubating the enzymes with equivalent amounts of DMSO. As indicated previously, data analysis was performed in Prism (GraphPad software) considering a model with a single binding site (Eq. 1), where F0 is the intrinsic fluorescence of the enzyme in the absence of quencher (Q), F1 is the observed fluorescence at a given quencher concentration, fa is the fractional degree of fluorescence, and Kd is the dissociation constant.
# HsCKα1 [3] = target: T3, HsCKα1 (Homo sapiens, UniProt P35790); test: Kd by tryptophan fluorescence quenching; assay type: binding; settings: 25 °C, enzyme 1 μM
# T3 construct: made in house
# Method: as §3
# P. falciparum 3D7 [4] = test: ES-MS and ES-MS-MS lipidomic analysis of treated parasites; assay type: cell-based, Plasmodium falciparum; settings: EC90 for 3 h; for effect on level of PC species: parents of 184 m/z spectra; for effect on endogenous PE species (in words): quantitative lipidomic analysis
# Method: After washing, P. falciparum trophozoites were cultured for 18h without inhibitors, collected, treated with saponin to release the parasites from the red blood cells, and washed twice with PBS prior to Bligh & Dyer lipid extraction. Briefly, 5 × 10^8 parasite cells were dissolved in 375 μl 1:2 (v/v) chloroform:methanol and vigorously vortexed for 15 min. 125 μl of chloroform were added and 500 pmols of 1,2-dimyristoyl-sn-glycero-3-phosphocholine and 1,2-dipalmitoyl-sn-glycero-3-phosphoethanolamine were included in each sample as internal controls. 125 μl of water were added to the sample, vortexed and centrifuged at ×1000 g (RT) for 5 min to make the sample biphasic. Lower organic phase was collected and upper (aqueous) phase was re-extracted twice with 125 μls of chloroform. Lipid extracts were pooled, dried under nitrogen and stored at 4 °C for ESI-MS/MS analysis.
# Lipid extracts, were dissolved in 15 μl of choloroform:methanol (1:2) and 15 μl of acetonitrile:iso-propanol:water (6:7:2) and analysed with a Absceix 4000 QTrap, a triple quadrupole mass spectrometer equipped with a nanoelectrospray source. Samples were delivered using a Nanomate interface in direct infusion mode (~125 nl/min). The lipid extracts were analysed in both positive and negative ion modes using a capillary voltage of 1.25 kV. MS/MS scanning (daughter, precursor and neutral loss scans) were performed using nitrogen as the collision gas with collision energies between 35–90 V. Each spectrum encompasses at least 50 repetitive scans. Tandem mass spectra (MS/MS) were obtained with collision energies between 35–90 V. Assignment of phospholipid and neutral lipid species is based upon a combination of survey, daughter, precursor and neutral loss scans, as well previous assignments. The identity of phospholipid peaks was verified using the LIPID MAPS: Nature Lipidomics Gateway (www.lipidmaps.org).
# PfCK [5] = target: T2, PfCK; test: IC50 determination, spectrophotometric CK/EK enzyme assay; assay type: biochemical; settings: for IC50: 0.5 mM each substrate
# Method: as §1, §2
# HsCKα1 [6] = target: T3, HsCKα1; test: as above; assay type: biochemical; settings: 0.5 mM each substrate
# Method: as §1, §2
# [7] = Etn as substrate, read-out: IC50 PfCK, Etn
# [8] = read-out: IC50 PfCK, Cho, Cho as substrate
# [9] = Etn as substrate, read-out: IC50 HsCK, Etn
# [10] = read-out: IC50 HsCK, Cho, Cho as substrate
# T3 sequence (P35790 whole entry): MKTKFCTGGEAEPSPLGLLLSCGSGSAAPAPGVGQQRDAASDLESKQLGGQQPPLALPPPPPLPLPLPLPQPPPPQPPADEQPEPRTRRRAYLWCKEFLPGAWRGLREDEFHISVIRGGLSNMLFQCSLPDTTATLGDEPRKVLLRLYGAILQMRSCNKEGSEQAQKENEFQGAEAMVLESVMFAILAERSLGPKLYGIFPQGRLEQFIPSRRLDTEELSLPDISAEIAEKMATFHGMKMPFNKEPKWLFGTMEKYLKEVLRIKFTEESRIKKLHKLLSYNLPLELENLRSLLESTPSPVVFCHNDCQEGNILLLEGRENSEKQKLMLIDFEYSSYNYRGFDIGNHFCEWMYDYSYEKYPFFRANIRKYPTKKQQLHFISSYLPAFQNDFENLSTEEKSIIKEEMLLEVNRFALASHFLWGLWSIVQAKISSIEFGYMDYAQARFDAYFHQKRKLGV
SMILES,effect on parasite development (P. falciparum 3D7 [1]),inhibition towards PfEK (in words) (PfEK),IC50 (PfEK) [nM],Kd (PfCK [2]) [nM],Kd (HsCKα1 [3]) [nM],"reduction of endogenous PE species (P. falciparum 3D7 [4]; ES-MS-MS parents of 196 m/z, internal PE standard) [%]",effect on level of PC species (P. falciparum 3D7 [4]),effect on endogenous PE species (in words) (P. falciparum 3D7 [4]),inhibition towards PfCKs choline kinase activity (in words) (PfCK [5]; Cho as substrate),IC50 (PfCK [5]; [7]) [nM],IC50 (PfCK [5]; [8]) [nM],IC50 (HsCKα1 [6]; [9]) [nM],IC50 (HsCKα1 [6]; [10]) [nM],affinity for PfCK relative to BR23 (PfCK [2]; ratio of Kds) [fold]
CN(C)c1cc[n+](Cc2ccc(-c3ccc(C[n+]4ccc(N5CCCC5)cc4)cc3)cc2)cc1.[Br-].[Br-] [BR23],arrest of parasite development,neither BR23 nor BR25 showed any inhibition,> 500000,1400,521 ± 200,> 90,do not affect,significant reduction,moderate inhibition,12000,276000,230,580,–
CN(C)c1cc[n+](Cc2ccc(CCCCc3ccc(C[n+]4ccc(N5CCCC5)cc4)cc3)cc2)cc1.[Br-].[Br-] [BR25],arrest of parasite development,neither BR23 nor BR25 showed any inhibition,> 500000,415 ± 81,352 ± 20,–,do not affect,almost complete loss,moderate inhibition,6000,103000,180,560,3
